Calls of active or inactive are those of the source. No rule for the calls is given here. A value given as a limit tells only on which side of the number the result lay.

Ubiquitin carboxyl-terminal hydrolase isozyme L1 (Homo sapiens), sequence (P09936 whole entry, looked up): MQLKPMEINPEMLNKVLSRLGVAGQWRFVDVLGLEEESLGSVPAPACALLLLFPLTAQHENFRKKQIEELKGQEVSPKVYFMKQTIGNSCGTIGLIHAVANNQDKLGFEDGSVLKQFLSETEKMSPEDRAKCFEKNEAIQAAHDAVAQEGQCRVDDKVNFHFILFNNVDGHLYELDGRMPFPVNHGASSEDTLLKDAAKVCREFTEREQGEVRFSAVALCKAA

This experiment has as its target Ubiquitin carboxyl-terminal hydrolase isozyme L1 (Homo sapiens) (UniProt P09936). Kind of experiment: UCH-L1 deubiquitylase inhibitors, biochemical concentration-response, hit retest (AID 1645867). The settings on record: recombinant UCHL1 deubiquitinase activity assay.
A word on the IC50: it is the concentration needed to halve the response being measured. For the molecule `O=C(Cn1cccc(-c2nc(-c3ccccc3)no2)c1=O)Nc1ccccc1F`, the IC50 is > 25 µM (inactive).

`CC(=O)O[C@@H]1C(=O)C2=C(C(=O)C[C@H]3C(C)(C)C(=O)CC[C@]23C)[C@]2(C)C(=O)C[C@H]([C@H](C)CC(=O)C[C@@H](C)C(=O)O)[C@@]12C`: the IC50 is > 25 µM (inactive).

On to `Cc1cccc(CCN2C(=O)CCc3c(C)nc(C4CCCNC4)nc32)c1` (configuration not stated), for which the IC50 was > 25 µM (inactive).

Turning to `COc1cn(-c2ccc(F)cc2)nc1C(=O)Nc1ccc(Cl)cc1Cl`, the 50% inhibitory concentration (IC50) is 23.2 µM.

As to `CC(C)=CCC(O)C1=CC(=O)c2c(O)ccc(O)c2C1=O` (configuration not stated), the IC50 is 3.09 µM.

As to `Cc1ccc2c(c1)c(=O)c(C(=O)c1ccccc1)cn2CC(=O)Nc1ccc2c(c1)OCO2`, the IC50 is > 25 µM (inactive).

`Cc1ccc(NC(=O)Nc2ccc(C)n(CC(=O)Nc3ccc(C)c(C)c3)c2=O)cc1`: the IC50 is > 25 µM (inactive).

For the molecule `O=C(Nc1cccc(F)c1)N1C[C@@H]2c3nccn3-c3ccccc3[C@@H]2C1`, the IC50 is > 25 µM (inactive).

Turning to `CCOc1cccc(-c2noc(-c3nn(-c4ccccc4)ccc3=O)n2)c1`, the IC50 is > 25 µM (inactive).

With `COc1cc(Cl)c(NC(=O)c2cc(-c3ccccn3)n[nH]2)c(OC)c1`, the IC50 is > 25 µM (inactive).

As for `CCOc1ccc(-c2ccc3nnc(SCC(=O)Nc4ccc(F)cc4)n3n2)cc1`, the IC50 was > 25 µM (inactive).

As for `CC[C@H](C)[C@H](NC(=O)[C@H]([C@@H](C)CC)N(C)C(C)=O)C(=O)N[C@H](C(=O)N[C@@H](CC(C)C)C(=O)C1(C)CO1)[C@@H](C)O` (some centres not stated), the IC50 was > 25 µM (inactive).

Regarding `CCN(CC)Cc1ccc(-c2nnc(-c3cnc4onc(C)c4c3)o2)o1`, the IC50 was > 25 µM (inactive).

Turning to `COc1ccccc1-c1nc(-c2cn(-c3ccc(F)cc3)nn2)no1`, the IC50 is > 25 µM (inactive).

Turning to `O=C(COC(=O)c1cnccn1)Nc1ccc(Cl)cc1C(=O)c1ccccc1`, the IC50 was > 25 µM (inactive).

On to `CC1=C(C)C(c2c(-c3ccc(C)cc3)[nH]c3ccccc23)N(C(C)(C)C)C1=O` (configuration not stated), for which the IC50 was > 25 µM (inactive).

As to `Cn1c(=O)c2ncnnc2n(C)c1=O`, the 50% inhibitory concentration (IC50) was 16.3 µM.

As to `Cc1ccc(-n2cc(C(=O)NCCCc3ccccc3)nn2)cc1`, the IC50 is > 25 µM (inactive).

As to `COc1c(C(=O)Nc2nnc(C3CC3)s2)csc1Cl`, the IC50 was > 25 µM (inactive).

For the molecule `CCOc1ccc2c(c1)c(=O)c(C(=O)c1ccccc1)cn2CC(=O)Nc1ccccc1`, the IC50 is > 25 µM (inactive).

Consider `O=C(c1cncs1)N1CCc2[nH]nc(Nc3ccccc3)c2C1`, for which the IC50 is > 25 µM (inactive).

On to `Cc1ccc(C2SCC(=O)Nc3c2c(=O)[nH]n3C2CCCCC2)cc1` (configuration not stated), for which the IC50 was > 25 µM (inactive).

As for `Cn1cc(NC(=O)Nc2cccc(C(F)(F)F)c2)c2ccccc2c1=O`, the IC50 is > 25 µM (inactive).

As to `COc1ccc(-c2cc3nc([C@H](C)NC(=O)Cc4cc(F)ccc4F)nn3cn2)cc1`, the IC50 is > 25 µM (inactive).

On to `Cc1ccc(-n2ccn3c(CCC(=O)NCc4ccc(F)cc4)nnc3c2=O)cc1C`, for which the IC50 was > 25 µM (inactive).

As for `COc1ccc(-c2cc3nc([C@H](C)NC(=O)Cc4ccccc4C)nn3cn2)cc1`, the IC50 was > 25 µM (inactive).

On to `Cc1ccc(N(CC(=O)N2CCCc3ccccc32)S(=O)(=O)c2ccc3c(c2)OCCO3)cc1`, for which the IC50 was > 25 µM (inactive).

Regarding `COc1ccc(CC(=O)Nc2c(NCc3ccccc3)c3ccccc3oc2=O)cc1`, the IC50 is > 25 µM (inactive).

With `O=C(Cn1c(=O)c2ccccc2c2ccccc21)Nc1ccc2c(c1)OCO2`, the IC50 is > 25 µM (inactive).

Regarding `Cc1ccc(C)c(NC(=O)Cn2cc(C(=O)C3CC3)c3ccccc32)c1`, the IC50 is > 25 µM (inactive).

Consider `O=C(CCCn1c(=O)c2ccccc2n(CC(=O)NCc2ccccc2Cl)c1=O)NCc1ccc2c(c1)OCO2`, for which the IC50 was > 25 µM (inactive).

As for `Cc1ccccc1NC(=O)Cn1cc(S(=O)(=O)Cc2ccccc2)c2ccccc21`, the IC50 is > 25 µM (inactive).
